Columns and labels:
[1] = system: ikaros (IKZF1); test: Western blot of IKZF1 in lysates of HALO.CRBN Jurkat cells exposed to pomalidomide or lenalidomide; type: cell-based; conditions: lanes, HALO.CRBN Jurkat cell lysates, compared with control or 1 μM pomalidomide lanes
Excerpt: A stable cell line, using Jurkat cells, was created where native cereblon (CRBN) was knocked out and a fusion of HaloTag protein and CRBN was expressed (referred to herein as “the HALO.CRBN Jurkat cell line”). […] The gel was stained using mouse anti-IKZF1 antibody. The dilution was 1:1000 and the exposure was about 10 seconds.

[2] = system: Halotag-KRAS(G12D); test: Halotag chaser assay (TAMRA-Cl) for Ir-photocatalyst cell permeability, fluorescent Western blot; type: cell-based, human
Experimental: Photo-responsive labeling within cells was carried out as described similar to the procedure as described in Example 11. An Ir-photocatalyst master stock solution was prepared at 10 mM or 5 mM in 100% DMSO. KRAS (G12DHaloTag®/+) cells (HD-103-021, Horizon Discovery) were grown to 90% confluency in 6-well cell culture dishes using phenol-free RPMI1640 media (Gibco™). […] The cells were incubated for 1 or 2 hours at 37° C. The media was then aspirated and cells were gently washed twice with 2 mL fresh RPMI 1640, with an incubation of 10 minutes per wash at 37° C. TAMRA-Cl fluorescent dye (Promega, 68251) was diluted with OptiMEM to a 5 μM working solution. 0.8 mL of the working dye solution was added to the cells, and allowed to incubate for 15 minutes at 37° C. The cells were gently washed twice with 2 mL cold DPBS, aspirated, then added 200 μL RIPA supplemented with protease-phosphatase inhibitor (Halt™ Protease and Phosphatase Inhibitor Cocktail (100×)) and mixed briefly. The cell lysate was collected into 1.5 mL tubes. The cell lysate was sonicated using a probe-sonicator (SONICS vibra-cell Fisher Scientific) with 15 s on, 10 s off, at 30% amplitude for 3 cycles. The cell lysate was centrifuged at 18,000 g at 4° C. for 20 minutes. […] Cell lysates were processed and analyzed by fluorescent Western blot with anti-TAMRA and anti-β-Actin (for normalization) antibodies. […]

[3] = system: PI3 Kinase P110α; test: Photo-responsive labeling within live cells, HALO-tag immunoprecipitation, Western blot with Anti-PI3k antibody; type: cell-based, human; conditions: labeling agent 250 μM, photocatalyst 10 μM, irradiation 450 nm 10 minutes, cell line 021
Experimental: (§1) Initially, reagents were prepared. An Ir—Cl photocatalyst master stock solution was prepared at 10 mM in 100% DMSO. The specific Ir—Cl photocatalyst used in this example was the photocatalyst prepared in accordance with Example 2. To create a working solution for the Ir—Cl catalyst, a portion of the Ir—Cl catalyst master stock solution was diluted in 1×DPBS, such that the final Ir—Cl catalyst concentration was 10 μM and the DMSO concentration was 0.1%. A labeling agent master stock was also prepared, having a 25 mM concentration in 100% DMSO. The particular labeling agent used was the one prepared in accordance with Example 1. To create a working solution for the labeling agent, a portion of the labeling agent master stock solution was diluted in 1×DPBS, such that the final concentration of labeling agent was 250 μM and the DMSO concentration was 1%.
(§2) A human KRAS (G12DHaloTag®/+) cell line (HD-103-021, Horizon Discovery) with protein reporter was grown to 80-90% confluence. Cells were harvested and pelleted down by centrifuging at 1000 g, for 5 minutes at 4° C. (Eppendorf Centrifuge 5427 R). Supernatant was discarded and the cell pellet was resuspended in ice cold 1×DPBS (Gibco™) and mixed. Subsequently, cells were again pelleted down by centrifuging at 1000 g, for 5 minutes at 4° C. Supernatant was discarded and fresh ice cold 1×DPBS was added to the pellet and mixed. […]

[4] = system: SOS1; test: Photo-responsive labeling within live cells, streptavidin bead immunoprecipitation of biotinylated proteins, Western blot with anti-SOS1 antibody; type: cell-based, human; conditions: KRAS (G12DHaloTag/+) protein reporter cells with photocatalyst, labeling partner and irradiation; no distinct band in control cells HD-103-037 and HD-PAR-006
Experimental: as §1, §2

[5] = system: bovine serum albumin (BSA); test: Catalyst-dependent biotinylation of bovine serum albumin, fluorescent Western blot with anti-biotin antibody; type: biochemical; conditions: labeling reagent WH8 100 uM, BSA 10 uM, catalyst 5 μM and 10 μM, 5 minutes irradiation at 450 nm; no band without irradiation
Experimental: Photocatalyst was combined with diazirine labeling compounds 8 or 9 and BSA in DPBS to yield reaction mixtures with 200 uL total solution volume. BSA concentration was 10 uM; diazirine labeling compound was fixed as 100 uM; the final catalyst concentration was set as 5 uM and 10 uM respectively. These samples were then either placed in the dark or irradiated with visible (450 nm) light in a M2 photoreactor for 5 minutes at 100% intensity. 60 uL samples were then removed, combined with 20 μL of 4× reducing SDS-Laemmli buffer (with 1:10 1 M DTT), mixed and heated at 95° C. for 5 minutes. 15 μL of each sample was then analyzed by Fluorescent western blot.
The sample was loaded into a 4-20% Tris-Glycine gel (Bio-Rad). Gel was run at 120V for 80 minutes or until the dye front reaches the end of the gel. Proteins were transferred from gel to nitrocellulose membrane using the iBlot 2 semi-dry Transfer apparatus. The membrane was used to detect total protein for normalization which follow the manufacturer's manual (Revert™ 700 Total Protein Stain, LI-COR). After that, the membrane rinsed once with TBST and blocked with h Intercept® Blocking Buffer for 1 hour at RT with gentle shaking. After blocking, membrane was washed with TBST and requisite antibody was added (1:1000) and kept for overnight at 4° C. on a shaker. […]

| Compound | IKZF1 level in Western blot (anti-IKZF1) [1] | binding to the Halotag (Halo-chaser assay, anti-TAMRA) ([2]; FIG. 21A, 1 hour treatment, 5 μM and 10 μM photocatalyst, KRAS (G12DHaloTag/+) cells, compared to DMSO control) | binding to the Halotag (Halo-chaser assay, anti-TAMRA) ([2]; FIG. 21B, 5 μM photocatalyst) | PI3 Kinase P110α band after HALO-tag IP (FIG. 4A) [3] | SOS1 band after streptavidin IP (FIG. 5F) [4] | biotinylation of BSA (anti-biotin fluorescent Western blot) [5] |
| --- | --- | --- | --- | --- | --- | --- |
| Nc1cccc2c1C(=O)N(C1CCC(=O)NC1=O)C2=O (centres unmarked) [pomalidomide] | observably less IKZF1 | – | – | – | – | – |
| Cc1ccnc(-c2cc(CCC(=O)NCCOCCOCCOCCOCCCCCCCl)ccn2)c1.Fc1cc(F)c(-c2ccc(C(F)(F)F)cn2)[c]([Ir+][c]2cc(F)cc(F)c2-c2ccc(C(F)(F)F)cn2)c1 [IR1] | – | a little less binding to the Halo tag | majority binding | distinct band of PI3 Kinase P110α | distinct SOS1 band observed | – |
| [N-]=[N+]=Nc1ccc(C(=O)NCCOCCOCCOCCNC(=O)CCCC[C@@H]2SC[C@@H]3NC(=O)N[C@@H]32)cc1 [WH8, 4-azido-N-(13-oxo-17-((3aS,4S,6aR)-2-oxohexahydro-1H-thieno[3,4-d]imidazol-4-yl)-3,6,9-trioxa-12-azaheptadecyl)benzamide] | – | – | – | distinct band of PI3 Kinase P110α | distinct SOS1 band observed | biotinylated BSA bands |
